From paper PMC7619385 (ACS infectious diseases, 2025)
Like-named read-outs stand apart in the source and are kept apart here.

How the values were obtained:
NLuc::LmxCLK1 = NLuc::LmxCLK1 (Leishmania mexicana, UniProt E9AMP2); experiment: cell-based; type: cell-based; settings: for Target occupancy Run 1 / Target occupancy Run 2 / Target occupancy Average: 10 µM compound, tracer SV366, promastigotes; for Target occupancy Average: mean of two experiments
Protocol: All compounds were tested at a fixed concentration of 10 µM to enable direct comparison of their target occupancy in live cells.
Serially diluted probes (5 µL) were added to 85 µL of cells in culture media or 85 µL of purified protein. Final well volumes were adjusted to 100 µL with sterile Opti-MEM™ I Reduced Serum Medium (Thermo-Scientific) – for wells containing cells; or Kinase Buffer - for wells containing purified protein. For tracer displacement assays, samples were prepared as above, but final volume was brought to 100 µL by addition of vehicle or serially-diluted test compounds. Final DMSO concentration in these assays was 1%. […] Light emissions at 460+10 nm (BRET donor) and at 610+20 nm (BRET acceptor) were sequentially recorded (integration time = 0.5 s, gain = 3600) using a luminometer (BMG LABTECH Clariostar or Biotek Synergy HT). BRET values are reported in milli-BRET (mBRET) units (mBU), obtained by dividing the acceptor luminescence by the donor luminescence and multiplying the result by a factor of 1,000. BRET values were converted to blank-corrected probe occupancies (%) according to equation [1]: (1) Probeoccupancy(%)=X−Z/Y−Z×100 where X = mBRET value in the presence of the test compound and the probe, Y = mBRET value in the presence of probe only, and Z = mBRET value in the absence of probe and test compound. […]

LmxCLK1 = biological target: T1, LmxCLK1 (Leishmania mexicana, UniProt E9AMP2); experiment: biochemical; type: binding
T1 sequence (E9AMP2 1-422): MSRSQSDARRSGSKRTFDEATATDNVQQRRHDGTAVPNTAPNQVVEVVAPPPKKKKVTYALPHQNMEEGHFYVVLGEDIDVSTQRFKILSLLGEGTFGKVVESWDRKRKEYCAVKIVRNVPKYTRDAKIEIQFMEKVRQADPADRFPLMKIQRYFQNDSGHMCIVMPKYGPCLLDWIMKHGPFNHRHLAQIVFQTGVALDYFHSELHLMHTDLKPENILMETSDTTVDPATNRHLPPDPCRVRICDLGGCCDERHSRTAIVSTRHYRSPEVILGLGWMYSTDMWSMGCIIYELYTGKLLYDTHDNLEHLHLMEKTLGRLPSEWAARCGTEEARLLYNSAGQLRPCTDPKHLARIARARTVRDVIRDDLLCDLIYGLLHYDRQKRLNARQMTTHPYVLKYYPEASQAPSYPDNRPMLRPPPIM

[1] = DSF, 10 µM compound, 2 µM LmxCLK1, Run 1
[2] = DSF, 10 µM compound, 2 µM LmxCLK1, Run 2
[3] = DSF, 10 µM compound, 2 µM LmxCLK1, mean of two runs
[4] = read-out: Target occupancy Average
[5] = read-out: Target occupancy Run 1
[6] = read-out: Target occupancy Run 2
[7] = DSF, 10 µM compound, 2 µM LmxCLK1, Run 1, read-out: ΔTm Run 1
[8] = DSF, 10 µM compound, 2 µM LmxCLK1, Run 2, read-out: ΔTm Run 2
[9] = DSF, 10 µM compound, 2 µM LmxCLK1, mean of two runs, read-out: ΔTm Average

| Compound | ΔTm Run 1 (LmxCLK1; [1]) [°C] | ΔTm Run 2 (LmxCLK1; [2]) [°C] | ΔTm Average (LmxCLK1; [3]) [°C] | ΔTm at 10 µM (LmxCLK1; [7]) [°C] | ΔTm at 10 µM (LmxCLK1; [8]) [°C] | ΔTm at 10 µM (LmxCLK1; [9]) [°C] | other results |
| --- | --- | --- | --- | --- | --- | --- | --- |
| CN(C)CCCn1cc(C2=C(c3c[nH]c4ccccc34)C(=O)NC2=O)c2ccccc21 [GF109203X] | – | – | – | – | – | – | Target occupancy Run 1 (NLuc::LmxCLK1): -5.7%; Target occupancy Run 2 (NLuc::LmxCLK1): -5.0%; Target occupancy Average (NLuc::LmxCLK1): -5.4%; ΔTm Average (LmxCLK1): 0.2 °C; ΔTm Run 1 (LmxCLK1): 0.3 °C; ΔTm Run 2 (LmxCLK1): 0.1 °C |
| COc1ccc(-c2cc3c(C)nc(N)nc3n([C@H]3CC[C@H](OCCO)CC3)c2=O)cn1 [PF-04691502] | – | – | – | – | – | – | Target occupancy Run 1 (NLuc::LmxCLK1): -3.4%; Target occupancy Run 2 (NLuc::LmxCLK1): -25.8%; Target occupancy Average (NLuc::LmxCLK1): -14.6%; ΔTm Average (LmxCLK1): 0.2 °C; ΔTm Run 1 (LmxCLK1): 0.3 °C; ΔTm Run 2 (LmxCLK1): 0.1 °C |
| C#Cc1cccc(Nc2ncnc3cc(OCCOC)c(OCCO)cc23)c1 [OSI-420] | 0.2 | 0.1 | 0.1 | – | – | – | Target occupancy Run 1 (NLuc::LmxCLK1): -6.8%; Target occupancy Run 2 (NLuc::LmxCLK1): 3.7%; Target occupancy Average (NLuc::LmxCLK1): -1.5% |
| C[C@H]1[C@H](C)CC[C@]2(C(=O)O)CC[C@]3(C)C(=CC[C@@H]4[C@@]5(C)C[C@@H](O)[C@H](O)[C@@](C)(CO)[C@@H]5CC[C@]43C)[C@H]12 [Asiatic Acid] | – | – | – | 0.2 | 0.1 | 0.2 | receptor occupancy at 10 µM (NLuc::LmxCLK1; [4]): -4.4%; receptor occupancy at 10 µM (NLuc::LmxCLK1; [5]): 8.6%; receptor occupancy at 10 µM (NLuc::LmxCLK1; [6]): -17.4% |
| CS(=O)(=O)c1ccc(-c2cnc(N)c(C(=O)Nc3ccccc3)n2)cc1 [VE-821] | – | – | – | -0.2 | -0.5 | -0.4 | receptor occupancy at 10 µM (NLuc::LmxCLK1; [4]): -2.9%; receptor occupancy at 10 µM (NLuc::LmxCLK1; [5]): -11.1%; receptor occupancy at 10 µM (NLuc::LmxCLK1; [6]): 5.3% |
| Cl.Cl.O=S(=O)(NCCNC/C=C/c1ccc(Br)cc1)c1cccc2cnccc12 [H 89 2HCl] | 0.2 | -0.1 | 0.0 | – | – | – | – |
| Cn1cc(-c2[nH]c3cc(NC(=O)[C@H](N)C4CCCCC4)cc4c3c2C=NNC4=O)cn1 [PF-477736] | – | – | – | 1.3 | 1.2 | 1.2 | – |
| CN([C@@H](Cc1ccc(OS(=O)(=O)c2cccc3cnccc23)cc1)C(=O)N1CCN(c2ccccc2)CC1)S(=O)(=O)c1cccc2cnccc12 [KN-62] | – | – | – | – | – | – | ΔTm Average (LmxCLK1): -0.3; ΔTm Run 1 (LmxCLK1): -0.4; ΔTm Run 2 (LmxCLK1): -0.2 |
| Cc1cc(CN2CCN(c3c(Br)cnc4nc(-c5ccc(N6CCN(C)CC6)cc5)[nH]c34)CC2)no1 [CCT137690] | 0.3 | 0.4 | 0.3 | – | – | – | – |
| CCO.N#CC(=C(/N)Sc1ccccc1N)/C(C#N)=C(\N)Sc1ccccc1N [U0126-EtOH] | – | – | – | – | – | – | ΔTm Average (LmxCLK1): -0.1; ΔTm Run 1 (LmxCLK1): -0.4; ΔTm Run 2 (LmxCLK1): 0.1 °C |
| C[C@@H](Oc1cc(-c2cnn(C3CCNCC3)c2)cnc1N)c1c(Cl)ccc(F)c1Cl [Crizotinib (PF-02341066)] | 1.4 | 1.4 | 1.4 | – | – | – | – |
| CCCCCCCCc1ccc(CCC(N)(CO)CO)cc1.Cl [Fingolimod (FTY720) HCl] | 0.2 | -0.1 | 0.1 | – | – | – | – |
| CNc1nc(Nc2cn(C(C)(C)C#N)nc2C)ncc1C(F)(F)F [GNE-0877] | – | – | – | -0.1 | -0.2 | -0.1 | – |
| O=C(NCCCNc1nc(Nc2cccc(NC(=O)N3CCCC3)c2)ncc1I)c1cccs1 [BX-795] | – | – | – | -0.1 | 0.4 | 0.2 | – |
| CCN(CCO)CCCOc1ccc2c(Nc3cc(CC(=O)Nc4cccc(F)c4)[nH]n3)ncnc2c1 [Barasertib (AZD1152-HQPA)] | 0.4 | -0.1 | 0.1 | – | – | – | – |
| CS(=O)(=O)c1cccc(CNc2nc(Nc3ccc4c(c3)CCC(=O)N4)ncc2C(F)(F)F)c1 [PF-573228] | 0.1 | -0.3 | -0.1 | – | – | – | – |
| COc1cc2ncnc(Nc3cccc(Cl)c3)c2cc1OC [AG-1478 (Tyrphostin AG-1478)] | 0.1 | 0.3 | 0.2 | – | – | – | – |
| O=C(Nc1cc(C(F)(F)F)cc(C(F)(F)F)c1)c1cc(Cl)ccc1O [IMD 0354] | – | – | – | 0.2 | -0.1 | 0 | – |
| CNC(=O)c1cc(COc2nnc(Nc3ccc(Cl)cc3)c3ccoc23)ccn1 [Telatinib] | – | – | – | -0.3 | -0.5 | -0.4 | – |

| Compound | ΔTm Run 1 (LmxCLK1; [1]) [°C] | ΔTm Run 2 (LmxCLK1; [2]) [°C] | ΔTm Average (LmxCLK1; [3]) [°C] | ΔTm at 10 µM (LmxCLK1; [7]) [°C] | ΔTm at 10 µM (LmxCLK1; [8]) [°C] | ΔTm at 10 µM (LmxCLK1; [9]) [°C] | other results |
| --- | --- | --- | --- | --- | --- | --- | --- |
| C=CCc1ccc(O)c(-c2ccc(O)c(CC=C)c2)c1 [Honokiol] | – | – | – | -0.2 | 0.2 | 0 | – |
| CC(C)(O)CC(=O)NCCn1ccc2ncnc(Nc3ccc(Oc4cccc(C(F)(F)F)c4)c(Cl)c3)c21 [TAK-285] | – | – | – | -0.5 | -0.2 | -0.3 | – |
| COc1cc(OC)c(/C=C/S(=O)(=O)Cc2ccc(OC)c(NCC(=O)O)c2)c(OC)c1 [Rigosertib (ON-01910)] | -0.2 | -0.4 | -0.3 | – | – | – | – |
| COc1cc2ncnc(Nc3ccc(Cl)cc3F)c2cc1OC [ZM 306416] | 0.2 | 0.0 | 0.1 | – | – | – | – |
| N#CCNC(=O)c1ccc(-c2ccnc(Nc3ccc(N4CCOCC4)cc3)n2)cc1 [CYT387] | – | – | – | 0 | -0.1 | 0 | – |
| N#Cc1c(NC(=O)c2cccc3ccccc23)sc2c1CCCC2 [JNK Inhibitor IX] | 0.3 | -0.1 | 0.1 | – | – | – | – |
| OCCn1cc(-c2cnc3nnn(Cc4ccc5ncccc5c4)c3n2)cn1 [PF-04217903] | – | – | – | – | – | – | ΔTm Average (LmxCLK1): 0.2 °C; ΔTm Run 1 (LmxCLK1): 0.1 °C; ΔTm Run 2 (LmxCLK1): 0.3 °C |
| Oc1cccc(-c2nc(N3CCOCC3)c3oc4ncccc4c3n2)c1 [PI-103] | – | – | – | 0 | 0 | 0 | – |
| C[C@H](Nc1ncnc2nc[nH]c12)c1cc2cccc(Cl)c2c(=O)n1-c1ccccc1 [IPI-145 (INK1197)] | – | – | – | – | – | – | Target occupancy Run 1 (NLuc::LmxCLK1): -2.8%; Target occupancy Run 2 (NLuc::LmxCLK1): 0.6%; Target occupancy Average (NLuc::LmxCLK1): -1.1% |
| Cn1c(=O)c(F)c(Nc2ccc(I)cc2F)c2c(=O)n(C[C@@H](O)CO)cnc21 [TAK-733] | – | – | – | 0.2 | -0.3 | -0.1 | – |
| COc1cc2nccc(Oc3ccc(NC(=O)C4(C(=O)Nc5ccc(F)cc5)CC4)cc3)c2cc1OC.O=C(O)C[C@H](O)C(=O)O [Cabozantinib malate (XL184)] | 0.1 | -0.3 | -0.1 | – | – | – | – |
| COC(=O)[C@]12CCC(C)(C)C[C@H]1[C@H]1C(=O)C=C3[C@@]4(C)C=C(C#N)C(=O)C(C)(C)[C@@H]4CC[C@@]3(C)[C@]1(C)CC2 [Bardoxolone Methyl] | – | – | – | 0.6 | 0.5 | 0.5 | – |
| Cc1c(NC(=O)c2ccc(C(C)(C)C)cc2)cccc1-c1cn(C)c(=O)c(Nc2ccc(C(=O)N3CCOCC3)cc2)n1 [CGI1746] | – | – | – | 0 | -0.4 | -0.2 | – |
| C=CC(=O)Nc1cccc(Nc2nc(Nc3ccc(N4CCN(C(C)=O)CC4)cc3OC)ncc2C(F)(F)F)c1 [CO-1686 (AVL-301)] | 0.0 | -0.3 | -0.1 | – | – | – | – |
| CS(=O)(=O)N1CCc2c(-c3cnc(N)nc3)nc(N3CCOCC3)nc21 [CH5132799] | – | – | – | 0.4 | 0.1 | 0.2 | – |
| N#Cc1c(Oc2ccc(F)c(NC(=O)Cc3cccc(C(F)(F)F)c3)c2)ccc2nc(NC(=O)C3CC3)sc12 [TAK-632] | 0.2 | 0.1 | 0.1 | – | – | – | – |
| COCC(=O)NC/C=C/c1ccc2ncnc(Nc3ccc(Oc4ccc(C)nc4)c(C)c3)c2c1 [CP-724714] | – | – | – | 0.6 | 0.2 | 0.4 | – |
| Cc1nc(N)sc1-c1ccnc(Nc2ccc(N3CCOCC3)cc2)n1 [CYC116] | – | – | – | 0.4 | -0.1 | 0.1 | – |
| C#Cc1cccc(Nc2ncnc3cc4c(cc23)OCCOCCOCCO4)c1 [Icotinib] | – | – | – | -0.3 | -0.2 | -0.3 | – |
